The structures appear in SMILES notation.

In one test the test system is HCV 1b-377-neo replicon cells. Briefly: HCV Replicon assay, HCV 1b-377-neo replicon cells. Format: cell-based, HCV 1b genotype. The settings on record: Hepatitis C virus, read-out: EC50 against HCV 1b (Activity or Range). As for the experimental part:
An HCV Replicon assay was utilized in the present disclosure, and was prepared, conducted and validated as described in commonly owned PCT/US2006/022197 and in O'Boyle et. al. Antimicrob Agents Chemother. 2005 April; 49(4):1346-53.
HCV 1b-377-neo replicon cells were used to test the currently described compound series as well as cells resistant to compound A containing a Y2065H mutation in NS5A (described in application PCT/US2006/022197). The compounds tested were determined to have more than 10-fold less inhibitory activity on cells containing the mutation than wild-type cells indicating a related mechanism of action between the two compound series. Thus, the compounds of the present disclosure can be effective to inhibit the function of the HCV NS5A protein and are understood to be as effective in combinations as previously described in application PCT/US2006/022197 and commonly owned WO/O4014852. Further, the compounds of the present disclosure can be effective against the HCV 1b genotype. It should also be understood that the compounds of the present disclosure can inhibit multiple genotypes of HCV. […] In one embodiment compounds of the present disclosure are active against the 1a, 1b, 2a, 2b, 3a, 4a, and 5a genotypes.
For orientation: Replicon systems follow genome replication, usually without infectious particles.
As a reminder, the EC50 is the midpoint of the concentration-response curve. As to `CCN(CC)[C@@H](C(=O)N1CC(F)(F)C[C@H]1c1ncc(-c2ccc(-c3ccc4c(ccc5[nH]c([C@@H]6CCCN6C(=O)[C@@H](c6ccccc6)N(CC)CC)nc54)c3)cc2)[nH]1)c1ccccc1` [Example 22w.a], the EC50 worked out at 0.12 nM. In the case of `COC(=O)N[C@H](C(=O)N1CC(F)(F)C[C@H]1c1ncc(-c2ccc(-c3ccc4c(c3)CCc3[nH]c([C@@H]5CCCN5C(=O)[C@@H](NC(=O)OC)C(C)C)nc3-4)cc2)[nH]1)C(C)C` [Example 22t], the EC50 was determined as 0.001 nM.

For `COC(=O)N[C@H](C(=O)N1CCC[C@H]1c1ncc(-c2ccc(-c3ccc4c(c3)CCCc3[nH]c([C@@H]5CCCN5C(=O)[C@@H](NC(=O)OC)C(C)C)nc3-4)cc2)[nH]1)C(C)C` [Example 22], the EC50 was 0.005 nM.

Regarding `COC(=O)N[C@@H](C)C(=O)N1CCC[C@H]1c1ncc(-c2ccc(-c3ccc4c(c3)CCCc3[nH]c([C@@H]5CCCN5C(=O)[C@H](C)NC(=O)OC)nc3-4)cc2F)[nH]1` [Example 22g.2], the EC50 was determined as 0.02 nM. For the molecule `COC(=O)N[C@H](C(=O)N1CCC[C@H]1c1nc2c([nH]1)CCCc1cc(-c3ccc(-c4cnc([C@@H]5CCCN5C(C)=O)[nH]4)cc3)ccc1-2)C(C)C` [Example 24], the EC50 was found to be 0.32 nM.

Still in this test, the particulars now being: Hepatitis C virus, read-out: EC50 against HCV 1b (Activity or Range), range class.
For `COC(=O)N[C@H](C(=O)N1CCC[C@H]1c1nc2ccc3cc(-c4ccc5c(ccc6[nH]c([C@@H]7CCCN7C(=O)[C@H](NC(=O)OC)c7ccccc7)nc65)c4)ccc3c2[nH]1)C(C)C` [Example 24.1a], the half-maximal effective concentration (EC50) fell in the range of 0.001 to 0.1 nM. Same read-out and setting: to `COC(=O)N[C@H](C(=O)N1CC(F)(F)C[C@H]1c1ncc(-c2ccc(-c3ccc4c(ccc5[nH]c([C@@H]6CC(F)(F)CN6C(=O)[C@@H](NC(=O)OC)C(C)C)nc54)c3)cc2)[nH]1)C(C)C` [Example 22w.2] belongs 0.001 to 0.1 nM; to `COC(=O)N[C@H](C(=O)N1[C@@H]2C[C@@H]2C[C@H]1c1nc2ccc3cc(-c4ccc5c(ccc6[nH]c([C@@H]7C[C@H]8C[C@H]8N7C(=O)[C@H](NC(=O)OC)c7ccccc7)nc65)c4)ccc3c2[nH]1)C(C)C` [Example 24.2a], 0.001 to 0.1 nM. Regarding `CCN(CC)[C@@H](C(=O)N1CCC[C@H]1c1nc2c(ccc3cc(-c4ccc5c(ccc6nc([C@@H]7CCCN7C(=O)[C@@H](c7ccccc7)N(CC)CC)[nH]c65)c4)ccc32)[nH]1)c1ccccc1` [Example 22u.2a], the EC50 was in the range of 0.001 to 0.1 nM.

Take `CCN(CC)[C@@H](C(=O)N1[C@@H]2C[C@@H]2C[C@H]1c1ncc(-c2ccc(-c3ccc4c(ccc5[nH]c([C@@H]6C[C@H]7C[C@H]7N6C(=O)[C@@H](c6ccccc6)N(CC)CC)nc54)c3)cc2F)[nH]1)c1ccccc1` [Example 22v.1a]: the EC50 lay in the range of 0.001 to 0.1 nM. Consider `COC(=O)N[C@H](C(=O)N1CCC[C@H]1c1ncc(-c2ccc(-c3ccc4c(ccc5[nH]c([C@@H]6CCCN6C(=O)[C@@H](NC(=O)OC)[C@@H](C)OC)nc54)c3)cc2)[nH]1)[C@H](C)OC` [Example 22u.b], for which the EC50 lay within 0.001 to 0.1 nM. Turning to `CCN(CC)[C@@H](C(=O)N1[C@@H]2C[C@@H]2C[C@H]1c1ncc(-c2ccc(-c3ccc4c(c3)CCc3[nH]c([C@@H]5C[C@H]6C[C@H]6N5C(=O)[C@@H](c5ccccc5)N(CC)CC)nc3-4)cc2F)[nH]1)c1ccccc1` [Example 22s.1a], the EC50 lay within 0.001 to 0.1 nM.

Consider `COC(=O)N[C@H](C(=O)N1CCC[C@H]1c1ncc(-c2ccc(-c3ccc4c(ccc5[nH]c([C@@H]6CC(F)(F)CN6C(=O)[C@@H](NC(=O)OC)C(C)C)nc54)c3)cc2)[nH]1)C(C)C` [Example 22w.1], for which the EC50 was in the range of 0.001 to 0.1 nM. Consider `CCN(CC)[C@@H](C(=O)N1[C@@H]2C[C@@H]2C[C@H]1c1nc2c(ccc3cc(-c4ccc5c(ccc6nc([C@@H]7C[C@H]8C[C@H]8N7C(=O)[C@@H](NC(=O)OC)C(C)C)[nH]c65)c4)ccc32)[nH]1)c1ccccc1` [Example 24.2], for which the EC50 fell in the range of 0.001 to 0.1 nM. For `CCN(CC)[C@@H](C(=O)N1CC(F)(F)C[C@H]1c1ncc(-c2ccc(-c3ccc4c(ccc5[nH]c([C@@H]6CC(F)(F)CN6C(=O)[C@@H](c6ccccc6)N(CC)CC)nc54)c3)cc2)[nH]1)c1ccccc1` [Example 22w.2a], the EC50 was 0.001 to 0.1 nM. With `COC(=O)N[C@H](C(=O)N1[C@@H]2C[C@@H]2C[C@H]1c1nc2c(ccc3cc(-c4ccc5c(ccc6nc([C@@H]7C[C@H]8C[C@H]8N7C(=O)[C@@H](NC(=O)OC)C(C)C)[nH]c65)c4)ccc32)[nH]1)C(C)C` [Example 22u.5], the EC50 lay within 0.001 to 0.1 nM. For `CCN(CC)[C@@H](C(=O)N1CCC[C@H]1c1ncc(-c2ccc(-c3ccc4c(c3)CCCc3c-4nc([C@@H]4CCCN4C(=O)[C@@H](c4ccccc4)N(CC)CC)n3O)cc2)[nH]1)c1ccccc1` [Example 22n.1], the EC50 lay in the range of 0.001 to 0.1 nM. On the same count and under the same terms, the figure for `COC(=O)N[C@H](C(=O)N1CCC[C@H]1c1nc2c([nH]1)CCCc1cc(-c3ccc(-c4[nH]c([C@@H]5CCCN5C(=O)[C@@H](NC(=O)OC)C(C)C)nc4CCC(F)(F)F)cc3)ccc1-2)C(C)C` [Example 22a.4] is 0.001 to 0.1 nM; for `COC(=O)N[C@H](C(=O)N[C@@H](C)c1ncc(-c2ccc(-c3ccc4c(c3)CCCc3[nH]c([C@H](C)NC(=O)[C@@H](NC(=O)OC)C(C)C)nc3-4)cc2)[nH]1)C(C)C` [Example 22d] it is 0.001 to 0.1 nM; for `COC(=O)N[C@H](C(=O)N1CCC[C@H]1c1nc2c([nH]1)CCc1cc(-c3ccc(-c4[nH]c([C@@H]5CCCN5C(=O)[C@@H](NC(=O)OC)C(C)C)nc4CCC(F)(F)F)cc3)ccc1-2)C(C)C` [Example 22r.1] it is 0.001 to 0.1 nM. On the same count and under the same terms, to `CCN(CC)[C@@H](C(=O)N1CCC[C@H]1c1ncc(-c2ccc(-c3ccc4c(c3)CCCc3[nH]c([C@@H]5CCCN5C(=O)[C@@H](c5ccccc5)N(CC)CC)nc3-4)cc2)[nH]1)c1ccccc1` [Example 22.1] belongs 0.001 to 0.1 nM; to `COC(=O)N[C@H](C(=O)N1CCC[C@H]1c1ncc(-c2ccc(-c3ccc4c(ccc5[nH]c([C@@H]6CCCN6C(=O)[C@@H](NC(=O)OC)C(C)C)nc54)c3)cc2F)[nH]1)C(C)C` [Example 22v], 0.001 to 0.1 nM. `CCN(CC)[C@@H](C(=O)N1CCC[C@H]1c1ncc(-c2ccc(-c3ccc4c(c3)CCc3[nH]c([C@@H]5CC(F)(F)CN5C(=O)[C@@H](c5ccccc5)N(CC)CC)nc3-4)cc2)[nH]1)c1ccccc1` [Example 22t.1a]: the EC50 lay in the range of 0.001 to 0.1 nM.

As to `COC(=O)N[C@H](C(=O)N1CCC[C@H]1c1ncc(-c2ccc(-c3ccc4c(ccc5[nH]c([C@@H]6CCCN6C(=O)[C@@H](NC(=O)OC)C(C)C)nc54)c3)cc2)[nH]1)C(C)C` [Example 22u], the concentration for a half-maximal effect (EC50) was 0.001 to 0.1 nM. Still for that read-out and setting: the figure for `COC(=O)N[C@H](C(=O)N1CCC[C@H]1c1ncc(-c2ccc(-c3ccc4c(c3)CCc3[nH]c([C@@H]5CCCN5C(=O)[C@@H](NC(=O)OC)C(C)C)nc3-4)cc2)[nH]1)C(C)C` [Example 22r] is 0.001 to 0.1 nM.

For the molecule `COC(=O)N[C@@H](C(=O)N1CCC[C@H]1c1ncc(-c2ccc(-c3ccc4c(c3)OCCc3[nH]c([C@@H]5CCCN5C(=O)[C@H](NC(=O)OC)c5ccccc5)nc3-4)cc2)[nH]1)c1ccccc1` [Example 22a.1], the EC50 lay within 0.001 to 0.1 nM. Still for that read-out and setting: the figure for `CCN(CC)[C@@H](C(=O)N1CCC[C@H]1c1ncc(-c2ccc(-c3ccc4c(c3)CCCc3[nH]c([C@@H]5CCCN5C(=O)[C@@H](c5ccccc5)N(CC)CC)nc3-4)cc2F)[nH]1)c1ccccc1` [Example 22g.1] is 0.001 to 0.1 nM.

These data come from patent publication US8147818B2, “Hepatitis C virus inhibitors” (Bristol-Myers Squibb Company, priority 2008, dated 2012).
